Test results reported in patent publication US20230111066A1, “PIGMENTED SPOT FORMATION INHIBITOR, INCREASED MELANOSOME PHAGOCYTOSIS INHIBITOR, AND EPIDERMAL DIFFERENTIATION POTENCY IMPROVER” (SSP CO., LTD., priority 2021, published 2023).

Assays:
[1] = test system: normal human epidermal keratinocytes (NHEKs); test: Fluorescent bead phagocytosis enhanced by BSO treatment; format: cell-based; settings: 50 μM BSO, pyridoxine 0.25 mM, 0.5 mM, or 1 mM, FIG. 2
Procedure: Test Example 2: Enhancement of Fluorescent Bead Phagocytosis by BSO Treatment and Enhanced Phagocytosis-Inhibiting Effect by VB6 A culture medium (HuMedia-KG2) was added to a 96-well plate at 0.1 mL/well, and normal human epidermal keratinocytes (NHEKs) were seeded at a density of 2.5×10^4 cells/well, followed by incubation for 24 hours. These cells were divided into first to fourth groups. In the first group (vitamin B6+BSO group), treatment with 50 μM of buthionine sulfoximine (BSO: manufactured by Sigma-Aldrich Co. LLC) was performed for 24 hours, and the medium was then replaced by a pyridoxine-containing culture medium (pyridoxine: 0.25 mM, 0.5 mM, or 1 mM), followed by culturing for 24 hours. In the second group (vitamin B6 group), the medium was replaced by a pyridoxine-containing culture medium (pyridoxine: 0.25 mM, 0.5 mM, or 1 mM), followed by culturing for 24 hours. In the third group (BSO group), treatment with 50 μM of buthionine sulfoximine (BSO) was performed for 24 hours, followed by culturing in a KG2 culture medium for 24 hours. […] Subsequently, the NHEKs of each group were allowed to incorporate fluorescent beads (manufactured by Thermo Fisher Scientific Inc.) for 4 hours, and the uptake amount of the fluorescent beads per unit protein was then measured with a microplate reader (manufactured by Tecan Group Ltd.).

[2] = test system: gene expression levels of keratin-10, involucrin, and loricrin; test: Degradation of epidermal differentiation potency by fluorescent bead phagocytosis, real-time PCR; format: cell-based, human
Procedure: Test Example 3: Effect of Improving Degradation of Epidermal Differentiation Potency by Fluorescent Bead Phagocytosis A culture medium (HuMedia-KG2) was added to a 96-well plate at 0.1 mL/well, and normal human epidermal keratinocytes (NHEKs) were seeded at a density of 2.5×10^4 cells/well, followed by incubation for 24 hours. These cells were divided into first to third groups. In the first group (vitamin B6+bead group), the medium was replaced by a pyridoxine-containing culture medium (pyridoxine: 1 mM), followed by culturing for 24 hours. The NHEKs were allowed to incorporate fluorescent beads (manufactured by Thermo Fisher Scientific Inc.) as pseudo-melanosomes for 4 hours, followed by further culturing in a fresh culture medium (HuMedia-KG2) for 20 hours. In the second group (bead group), after culturing for 24 hours, the NHEKs were allowed to incorporate fluorescent beads (manufactured by Thermo Fisher Scientific Inc.) as pseudo-melanosomes for 4 hours, followed by further culturing in a fresh culture medium (HuMedia-KG2) for 20 hours. In the third group (control group), the NHEKs were directly cultured for 48 hours. Subsequently, total RNA was extracted from the NHEKs of each group, and cDNA was produced by reverse transcription. Real-time PCR was performed using this cDNA as a template to detect gene expression levels of keratin-10, involucrin, and loricrin.

[3] = test system: normal human epidermal keratinocytes (NHEKs); test: Fluorescent bead (pseudo-melanosome) phagocytosis enhanced by UVB irradiation; format: cell-based
Procedure: Test Example 1: Enhancement of Fluorescent Bead Phagocytosis by UVB Irradiation and Enhanced Phagocytosis-Inhibiting Effect by VB6 A culture medium (HuMedia-KG2: manufactured by Kurabo Industries Ltd.) was added to a 96-well plate at 0.1 mL/well, and normal human epidermal keratinocytes (NHEKs) were seeded at a density of 2.5×10^4 cells/well, followed by incubation for 24 hours. These cells were divided into first to fourth groups. In the first group (vitamin B6+UVB group), the medium was replaced by a pyridoxine-containing culture medium (pyridoxine: 1 mM), followed by culturing for 24 hours, and irradiation with 20 mJ/cm^2 of UVB using a UVB broadband lamp manufactured by Koninklijke Philips N.V. was performed, followed by culturing for 24 hours. In the second group (vitamin B6 group), the medium was replaced by a pyridoxine-containing culture medium (pyridoxine: 1 mM), followed by culturing for 24 hours. […] Subsequently, the NHEKs of each group were allowed to incorporate fluorescent beads (manufactured by Thermo Fisher Scientific Inc.) as pseudo-melanosomes for 4 hours, and the uptake amount of the fluorescent beads per unit protein was then measured with a microplate reader (manufactured by Tecan Group Ltd.).

Compound: Cc1ncc(CO)c(CO)c1O [pyridoxine]
- effect on increase in melanosome phagocytosis (uptake amount of fluorescent beads per unit protein) [1]: inhibiting an increase in melanosome phagocytosis
- effect on epidermal differentiation potency (gene expression of keratin-10, involucrin, loricrin) ([2]; NHEKs, pyridoxine 1 mM, fluorescent beads 4 hours, FIG. 3): improving epidermal differentiation potency
- effect on increase in melanosome phagocytosis (uptake amount of fluorescent beads per unit protein) ([3]; NHEKs, pyridoxine 1 mM, 20 mJ/cm^2 UVB, FIG. 1): inhibiting an increase in melanosome phagocytosis

Compound: vitamin B6
- effect on epidermal differentiation potency, summary statement on the Examples ([2]; general statement covering Test Example 3): improving epidermal differentiation potency
- effect on increase in melanosome phagocytosis, summary statement on the Examples ([3]; general statement covering Test Examples 1 and 2): excellent effects of inhibiting an increase in melanosome phagocytosis
